# Assay results: PubChem BioAssay (NCI)
#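 Following 48 hours of exposure in 96-well plates, responses at five concentrations were used to interpolate endpoints linearly. GI50 marks 50% less growth. TGI: total growth inhibition.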
# Key:
# Assay in all cases: DTP human tumour cell line panel, 48 h
# SNB-19 CNS = test system: SNB-19 CNS
# TK-10 renal = test system: TK-10 renal
# A549 NSCLC = test system: A549 NSCLC
# NCI/ADR-RES ovarian = test system: NCI/ADR-RES ovarian
# SF-268 CNS = test system: SF-268 CNS
# UACC-62 melanoma = test system: UACC-62 melanoma
# DU-145 prostate = test system: DU-145 prostate
# NCI-H522 lung = test system: NCI-H522 lung
# NCI-H226 lung = test system: NCI-H226 lung
# LOX IMVI melanoma = test system: LOX IMVI melanoma
# CAKI-1 renal = test system: CAKI-1 renal
# RXF 393 renal = test system: RXF 393 renal
# MCF7 breast = test system: MCF7 breast
# SK-OV-3 ovarian = test system: SK-OV-3 ovarian
# RPMI-8226 leukemia = test system: RPMI-8226 leukemia
# UO-31 renal = test system: UO-31 renal
# SN12C renal = test system: SN12C renal
# OVCAR-5 ovarian = test system: OVCAR-5 ovarian
# SK-MEL-5 melanoma = test system: SK-MEL-5 melanoma
# HL-60(TB) leukemia = test system: HL-60(TB) leukemia
# NCI-H23 lung = test system: NCI-H23 lung
# UACC-257 melanoma = test system: UACC-257 melanoma
# CCRF-CEM leukemia = test system: CCRF-CEM leukemia
# NCI-H460 lung = test system: NCI-H460 lung
# K-562 leukemia = test system: K-562 leukemia
# MALME-3M melanoma = test system: MALME-3M melanoma
# OVCAR-3 ovarian = test system: OVCAR-3 ovarian
# T-47D breast = test system: T-47D breast
# OVCAR-4 ovarian = test system: OVCAR-4 ovarian
# MDA-MB-435 = test system: MDA-MB-435
# SW-620 colon = test system: SW-620 colon
# M14 melanoma = test system: M14 melanoma
# SK-MEL-28 melanoma = test system: SK-MEL-28 melanoma
# HOP-92 NSCLC = test system: HOP-92 NSCLC
# HOP-62 NSCLC = test system: HOP-62 NSCLC
# HCT-116 colon = test system: HCT-116 colon
# SK-MEL-2 melanoma = test system: SK-MEL-2 melanoma
# HT29 colon = test system: HT29 colon
# KM12 colon = test system: KM12 colon
# MOLT-4 leukemia = test system: MOLT-4 leukemia
# 786-0 renal = test system: 786-0 renal
# HS 578T breast = test system: HS 578T breast
# HCC-2998 colon = test system: HCC-2998 colon
# OVCAR-8 ovarian = test system: OVCAR-8 ovarian
# BT-549 breast = test system: BT-549 breast
# SR leukemia = test system: SR leukemia
# A498 renal = test system: A498 renal
# MDA-MB-231 breast = test system: MDA-MB-231 breast
# PC-3 prostate = test system: PC-3 prostate
# U251 CNS = test system: U251 CNS
# SF-539 CNS = test system: SF-539 CNS
# SNB-75 CNS = test system: SNB-75 CNS
# ACHN renal = test system: ACHN renal
# COLO 205 colon = test system: COLO 205 colon
# SF-295 CNS = test system: SF-295 CNS
# HCT-15 colon = test system: HCT-15 colon
# IGROV1 ovarian = test system: IGROV1 ovarian
# EKVX NSCLC = test system: EKVX NSCLC
smiles,measurement,setting,value
CC(C)C[C@H](NC(=O)[C@@H](O)[C@H](N)Cc1ccccc1)C(=O)O,TGI,SNB-19 CNS,> 100 µM
same,TGI,TK-10 renal,> 100 µM
same,TGI,A549 NSCLC,> 100 µM
same,TGI,NCI/ADR-RES ovarian,> 100 µM
same,TGI,SF-268 CNS,> 100 µM
same,TGI,UACC-62 melanoma,> 100 µM
same,TGI,DU-145 prostate,> 100 µM
same,GI50,NCI-H522 lung,> 100 µM
same,TGI,NCI-H522 lung,> 100 µM
same,TGI,NCI-H226 lung,> 100 µM
same,TGI,LOX IMVI melanoma,> 100 µM
same,TGI,CAKI-1 renal,> 100 µM
same,TGI,RXF 393 renal,> 100 µM
same,TGI,MCF7 breast,> 100 µM
same,TGI,SK-OV-3 ovarian,> 100 µM
same,TGI,RPMI-8226 leukemia,> 100 µM
same,GI50,UO-31 renal,> 100 µM
same,TGI,UO-31 renal,> 100 µM
same,TGI,SN12C renal,> 100 µM
same,TGI,OVCAR-5 ovarian,> 100 µM
same,TGI,SK-MEL-5 melanoma,> 100 µM
same,TGI,HL-60(TB) leukemia,> 100 µM
same,TGI,NCI-H23 lung,> 100 µM
same,TGI,UACC-257 melanoma,> 100 µM
same,TGI,CCRF-CEM leukemia,> 100 µM
same,TGI,NCI-H460 lung,> 100 µM
same,TGI,K-562 leukemia,> 100 µM
same,TGI,MALME-3M melanoma,> 100 µM
same,TGI,OVCAR-3 ovarian,> 100 µM
same,TGI,T-47D breast,> 100 µM
same,TGI,OVCAR-4 ovarian,> 100 µM
same,TGI,MDA-MB-435,> 100 µM
same,TGI,SW-620 colon,> 100 µM
same,TGI,M14 melanoma,> 100 µM
same,TGI,SK-MEL-28 melanoma,> 100 µM
same,TGI,HOP-92 NSCLC,> 100 µM
same,TGI,HOP-62 NSCLC,> 100 µM
same,TGI,HCT-116 colon,> 100 µM
same,TGI,SK-MEL-2 melanoma,> 100 µM
same,TGI,HT29 colon,> 100 µM
same,TGI,KM12 colon,> 100 µM
same,TGI,MOLT-4 leukemia,> 100 µM
same,TGI,786-0 renal,> 100 µM
same,TGI,HS 578T breast,> 100 µM
same,TGI,HCC-2998 colon,> 100 µM
same,TGI,OVCAR-8 ovarian,> 100 µM
same,GI50,BT-549 breast,> 100 µM
same,TGI,BT-549 breast,> 100 µM
same,TGI,SR leukemia,> 100 µM
same,GI50,A498 renal,> 100 µM
same,TGI,A498 renal,> 100 µM
same,TGI,MDA-MB-231 breast,> 100 µM
same,TGI,PC-3 prostate,> 100 µM
same,TGI,U251 CNS,> 100 µM
same,TGI,SF-539 CNS,> 100 µM
same,TGI,SNB-75 CNS,> 100 µM
same,TGI,ACHN renal,> 100 µM
same,TGI,COLO 205 colon,> 100 µM
same,TGI,SF-295 CNS,> 100 µM
same,TGI,HCT-15 colon,> 100 µM
same,TGI,IGROV1 ovarian,> 100 µM
CC(C)n1nc(C#Cc2cccc(NC(=O)c3cccc(C(F)(F)F)c3)c2)c2c(N)ncnc21,GI50,SNB-19 CNS,4.21 µM
same,TGI,SNB-19 CNS,> 100 µM
same,GI50,TK-10 renal,1.78 µM
same,TGI,TK-10 renal,4.45 µM
same,GI50,A549 NSCLC,3.29 µM
same,TGI,A549 NSCLC,64.4 µM
same,GI50,NCI/ADR-RES ovarian,2.83 µM
same,TGI,NCI/ADR-RES ovarian,> 100 µM
same,GI50,SF-268 CNS,2.15 µM
same,TGI,SF-268 CNS,10.4 µM
same,GI50,EKVX NSCLC,3.46 µM
same,TGI,EKVX NSCLC,> 100 µM
same,GI50,UACC-62 melanoma,0.19 µM
same,TGI,UACC-62 melanoma,1.24 µM
same,GI50,DU-145 prostate,2.78 µM
same,TGI,DU-145 prostate,12.3 µM
same,GI50,NCI-H522 lung,1.83 µM
same,TGI,NCI-H522 lung,9.11 µM
same,GI50,NCI-H226 lung,0.99 µM
same,TGI,NCI-H226 lung,6.35 µM
same,GI50,LOX IMVI melanoma,0.204 µM
same,TGI,LOX IMVI melanoma,1.04 µM
same,GI50,CAKI-1 renal,2.06 µM
same,TGI,CAKI-1 renal,12.8 µM
same,GI50,RXF 393 renal,1.02 µM
same,TGI,RXF 393 renal,2.49 µM
same,GI50,MCF7 breast,7.5 µM
same,TGI,MCF7 breast,> 100 µM
same,GI50,SK-OV-3 ovarian,1.98 µM
same,TGI,SK-OV-3 ovarian,4.55 µM
same,GI50,RPMI-8226 leukemia,2.26 µM
same,TGI,RPMI-8226 leukemia,16.7 µM
same,GI50,UO-31 renal,0.601 µM
same,TGI,UO-31 renal,6.1 µM
same,GI50,SN12C renal,1.28 µM
same,TGI,SN12C renal,8.17 µM
same,GI50,OVCAR-5 ovarian,1.36 µM
same,TGI,OVCAR-5 ovarian,27.7 µM
same,GI50,SK-MEL-5 melanoma,2.55 µM
same,TGI,SK-MEL-5 melanoma,30.8 µM
same,GI50,HL-60(TB) leukemia,0.156 µM
same,TGI,HL-60(TB) leukemia,> 100 µM
same,GI50,NCI-H23 lung,1.95 µM
same,TGI,NCI-H23 lung,22.8 µM
same,GI50,UACC-257 melanoma,0.538 µM
same,TGI,UACC-257 melanoma,5.68 µM
same,GI50,CCRF-CEM leukemia,2.73 µM
same,TGI,CCRF-CEM leukemia,> 100 µM
same,GI50,NCI-H460 lung,3 µM
same,TGI,NCI-H460 lung,> 100 µM
same,TGI,K-562 leukemia,> 100 µM
same,GI50,MALME-3M melanoma,0.203 µM
same,TGI,MALME-3M melanoma,4.41 µM
same,GI50,OVCAR-3 ovarian,2.96 µM
same,TGI,OVCAR-3 ovarian,28.9 µM
same,GI50,T-47D breast,3.22 µM
same,TGI,T-47D breast,17.5 µM
same,GI50,OVCAR-4 ovarian,3.54 µM
same,TGI,OVCAR-4 ovarian,34.4 µM
same,GI50,MDA-MB-435,1.67 µM
same,TGI,MDA-MB-435,> 100 µM
same,GI50,SW-620 colon,2.2 µM
same,TGI,SW-620 colon,> 100 µM
same,GI50,M14 melanoma,0.309 µM
same,TGI,M14 melanoma,2.03 µM
same,GI50,SK-MEL-28 melanoma,0.368 µM
same,TGI,SK-MEL-28 melanoma,6.82 µM
same,GI50,HOP-62 NSCLC,1.11 µM
same,TGI,HOP-62 NSCLC,6.71 µM
same,GI50,HCT-116 colon,0.308 µM
same,TGI,HCT-116 colon,3.89 µM
same,GI50,SK-MEL-2 melanoma,0.308 µM
same,TGI,SK-MEL-2 melanoma,1.96 µM
same,GI50,HT29 colon,0.485 µM
same,TGI,HT29 colon,> 100 µM
same,GI50,KM12 colon,3.41 µM
same,TGI,KM12 colon,> 100 µM
same,GI50,MOLT-4 leukemia,1.36 µM
same,TGI,MOLT-4 leukemia,61.3 µM
same,GI50,786-0 renal,2.65 µM
same,TGI,786-0 renal,14.3 µM
same,GI50,HS 578T breast,0.216 µM
same,TGI,HS 578T breast,1.88 µM
same,GI50,HCC-2998 colon,2.36 µM
same,TGI,HCC-2998 colon,75.7 µM
same,GI50,OVCAR-8 ovarian,3.15 µM
same,TGI,OVCAR-8 ovarian,> 100 µM
same,GI50,BT-549 breast,2.46 µM
same,TGI,BT-549 breast,47.7 µM
same,GI50,SR leukemia,3.67 µM
same,TGI,SR leukemia,> 100 µM
same,GI50,A498 renal,1.07 µM
same,TGI,A498 renal,2.51 µM
same,GI50,MDA-MB-231 breast,0.256 µM
same,TGI,MDA-MB-231 breast,2.07 µM
same,GI50,PC-3 prostate,2.91 µM
same,TGI,PC-3 prostate,> 100 µM
same,GI50,U251 CNS,3.05 µM
same,TGI,U251 CNS,69.4 µM
same,GI50,SF-539 CNS,0.445 µM
same,TGI,SF-539 CNS,2.33 µM
same,GI50,SNB-75 CNS,1.75 µM
same,TGI,SNB-75 CNS,3.89 µM
same,GI50,ACHN renal,1.01 µM
same,TGI,ACHN renal,5.72 µM
same,GI50,COLO 205 colon,0.524 µM
same,TGI,COLO 205 colon,5.73 µM
same,GI50,SF-295 CNS,2.88 µM
same,TGI,SF-295 CNS,> 100 µM
same,GI50,HCT-15 colon,2.41 µM
same,TGI,HCT-15 colon,> 100 µM
same,GI50,IGROV1 ovarian,0.333 µM
same,TGI,IGROV1 ovarian,1.59 µM
